Measured values reported in the supplement of paper PMC4723716.
Where a name gives a salt, the structure may show the parent alone.

Tested on: Plasmodium falciparum NF54 gametocytes
Conditions: 384, incubation time: 72 h
Protocol: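 Known antimalarials and MMV control compounds in dose response against each stage (I–V) […] The fitted EC50 is reported as IC50 in µM; '>' marks the top dose reached without a curve.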

[1] = gametocyte stage: Stage I Dose Response IC50 (µM), assay protocol: TSSA
[2] = gametocyte stage: Stage II Dose Response IC50 (µM), assay protocol: TSSA
[3] = gametocyte stage: Stage III Dose Response IC50 (µM), assay protocol: TSSA
[4] = gametocyte stage: Stage IV Dose Response IC50 (µM), assay protocol: TSSA
[5] = gametocyte stage: Stage V Dose Response IC50 (µM), assay protocol: TSSA
[6] = gametocyte stage: Stage I Dose Response IC50 (µM), assay protocol: SaLSSA
[7] = gametocyte stage: Stage II Dose Response IC50 (µM), assay protocol: SaLSSA
[8] = gametocyte stage: Stage III Dose Response IC50 (µM), assay protocol: SaLSSA
[9] = gametocyte stage: Stage IV Dose Response IC50 (µM), assay protocol: SaLSSA
[10] = gametocyte stage: Stage V Dose Response IC50 (µM), assay protocol: SaLSSA

| Structure (SMILES) | IC50 of gametocyte viability [1] [µM] | IC50 of gametocyte viability [2] [µM] | IC50 of gametocyte viability [3] [µM] | IC50 of gametocyte viability [4] [µM] | IC50 of gametocyte viability [5] [µM] | IC50 of gametocyte viability [6] [µM] | IC50 of gametocyte viability [7] [µM] | IC50 of gametocyte viability [8] [µM] | IC50 of gametocyte viability [9] [µM] | IC50 of gametocyte viability [10] [µM] |
| --- | --- | --- | --- | --- | --- | --- | --- | --- | --- | --- |
| Clc1ccc2c(N3CCN(CCCN4CCN(c5ccnc6cc(Cl)ccc56)CC4)CC3)ccnc2c1 [Piperaquine phosphate] [listing 1 of 2 here] | 0.0223 | 0.0262 | > 4.17 | > 4.17 | > 4.17 | – | – | – | – | – |
| Clc1ccc2c(N3CCN(CCCN4CCN(c5ccnc6cc(Cl)ccc56)CC4)CC3)ccnc2c1 [Piperaquine phosphate] [listing 2 of 2 here] | – | – | – | – | – | 0.018 | 0.0145 | 0.031 | > 4.17 | > 4.17 |
| COc1cc(NC(C)CCCN)c2ncccc2c1 (stereo not given) [Primaquine] | 3.35 | 6.41 | 7.96 | 9.44 | > 11.3 | 2.47 | 2.25 | 5.4 | 5.15 | 6.5 |
| COc1ccc2nc3cc(Cl)ccc3c(Nc3cc(CN4CCCC4)c(O)c(CN4CCCC4)c3)c2n1 [Pyronaridine phosphate] [listing 1 of 2 here] | 0.0101 | 0.0125 | 0.315 | 3.82 | 3.16 | – | – | – | – | – |
| COc1ccc2nc3cc(Cl)ccc3c(Nc3cc(CN4CCCC4)c(O)c(CN4CCCC4)c3)c2n1 [Pyronaridine phosphate] [listing 2 of 2 here] | – | – | – | – | – | 0.0132 | 0.01 | 0.125 | 2.58 | 2.08 |
| C=C[C@H]1CN2CC[C@H]1C[C@@H]2[C@@H](O)c1ccnc2ccc(OC)cc12 [Quinidine] [listing 1 of 2 here] | 0.18 | 0.275 | 2.83 | > 12.5 | > 12.5 | – | – | – | – | – |
| C=C[C@H]1CN2CC[C@H]1C[C@@H]2[C@@H](O)c1ccnc2ccc(OC)cc12 [Quinidine] [listing 2 of 2 here] | – | – | – | – | – | 0.138 | 0.208 | > 9.17 | > 12.5 | > 11.8 |
| C=C[C@H]1CN2CC[C@H]1C[C@H]2[C@H](O)c1ccnc2ccc(OC)cc12 [Quinine sulfate dihydrate (coeff. 2)] | 0.918 | 0.767 | 1.58 | > 12.5 | > 12.5 | – | – | – | – | – |
| C=C[C@H]1CN2CC[C@@H]1C[C@H]2[C@H](O)c1ccnc2ccc(OC)cc12 [Quinine sulfate dihydrate (coeff. 2)] | – | – | – | – | – | 0.44 | 0.496 | > 8.77 | > 12.5 | > 8.86 |
| Nc1ccc(S(=O)(=O)Nc2ncccn2)cc1 [Sulfadiazine] [listing 1 of 2 here] | > 12.5 | > 12.5 | > 12.5 | > 12.5 | > 12.5 | – | – | – | – | – |
| Nc1ccc(S(=O)(=O)Nc2ncccn2)cc1 [Sulfadiazine] [listing 2 of 2 here] | – | – | – | – | – | > 12.5 | > 12.5 | > 12.5 | > 12.5 | > 12.5 |
| COc1ncnc(NS(=O)(=O)c2ccc(N)cc2)c1OC [Sulfadoxine] | – | – | – | – | – | > 12.5 | > 12.5 | > 12.5 | > 12.5 | > 12.5 |
| Cc1cc(NS(=O)(=O)c2ccc(N)cc2)no1 [Sulfamethoxazole] [listing 1 of 2 here] | > 12.5 | > 12.5 | > 12.5 | > 12.5 | > 12.5 | – | – | – | – | – |
| Cc1cc(NS(=O)(=O)c2ccc(N)cc2)no1 [Sulfamethoxazole] [listing 2 of 2 here] | – | – | – | – | – | > 12.5 | > 12.5 | > 12.5 | > 12.5 | > 12.5 |
| COc1cc(C)c2c(Oc3cccc(C(F)(F)F)c3)c(OC)cc(NC(C)CCCN)c2n1 (stereo not given) [Tafenoquine] [listing 1 of 2 here] | 5.3 | 7.55 | 7.03 | 6.87 | 0.919 | – | – | – | – | – |
| COc1cc(C)c2c(Oc3cccc(C(F)(F)F)c3)c(OC)cc(NC(C)CCCN)c2n1 (stereo not given) [Tafenoquine] [listing 2 of 2 here] | – | – | – | – | – | 4.56 | 3.68 | 3.74 | 3.48 | 2.45 |
| CN(C)[C@@H]1C(O)=C(C(N)=O)C(=O)[C@@]2(O)C(O)=C3C(=O)c4c(O)cccc4[C@@](C)(O)[C@H]3C[C@@H]12 [Tetracycline] | – | – | – | – | – | > 12.5 | > 12.5 | > 12.5 | > 12.5 | > 12.5 |
| C=C(NC(=O)C(=C)NC(=O)c1csc(C2=N[C@@H]3c4csc(n4)[C@H]4NC(=O)c5csc(n5)[C@H]([C@](C)(O)[C@@H](C)O)NC(=O)[C@H]5CSC(=N5)/C(=C/C)NC(=O)[C@H]([C@@H](C)O)NC(=O)c5csc(n5)[C@]3(CC2)NC(=O)[C@H](C)NC(=O)C(=C)NC(=O)[C@H](C)NC(=O)[C@H]([C@@H](C)CC)N[C@@H]2C=Cc3c([C@H](C)O)cc(nc3[C@H]2O)C(=O)O[C@@H]4C)n1)C(N)=O [Thiostrepton] | 4.04 | 4.81 | 3.75 | 3.41 | 3.42 | – | – | – | – | – |
| COc1cc(Cc2cnc(N)nc2N)cc(OC)c1OC [Trimethoprim] | – | – | – | – | – | > 12.5 | > 12.5 | > 12.5 | > 12.5 | > 12.5 |
| CCC[C@@H]1C[C@@H](C(=O)N[C@@H]([C@H]2O[C@H](SC)[C@H](O)[C@@H](O)[C@H]2O)[C@H](C)Cl)N(C)C1 [clindamycin] | – | – | – | – | – | > 12.5 | > 12.5 | > 12.5 | > 12.5 | > 12.5 |
| C[C@]12CC[C@H](OS(=O)(=O)O)CC1=CC[C@@H]1[C@@H]2CC[C@]2(C)C(=O)CC[C@@H]12 [dehydroepiandrosterone sulphate] | – | – | – | – | – | > 12.5 | > 12.5 | > 12.5 | > 12.5 | > 12.5 |
| O=CN(O)CCCP(=O)([O-])O [fosmidomycin mono sodium] | – | – | – | – | – | > 12.5 | > 12.5 | > 12.5 | > 12.5 | > 12.5 |
| CC(C)NC(=N)NC(=N)Nc1ccc(Cl)cc1 [proguanil hydrochloride/1.14] | – | – | – | – | – | > 12.5 | > 12.5 | > 12.5 | > 12.5 | > 12.5 |
| CCc1nc(N)nc(N)c1-c1ccc(Cl)cc1 [pyrimethamine] | – | – | – | – | – | > 12.5 | > 12.5 | > 12.5 | > 12.5 | > 12.5 |
